According to the supplement of paper PMC6045584:
± gives the standard deviation of the averaged measurements.

Columns and labels:
[1] = compound: CC(=O)c1c(C)c2cnc(Nc3ccc(N4CCNCC4)cn3)nc2n(C2CCCC2)c1=O; assay: surviving fraction relative to DMSO-only wells; higher = less growth inhibition; settings: exposure time: 5 days
In short: (§1)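 Lines were retained only if, across three screens, replicate Pearson r was >0.7 and median Z' was >0.3. Viability was measured as CellTiter-Glo luminescence and reported as surviving fraction relative to the median of DMSO-only wells. Readings followed 10 minutes at room temperature, after log-phase tumour cells seeded at 250–500 per well in 384-well plates had been exposed, from 24 hours after seeding, continuously for five days to inhibitors at 0.5, 1, 5, 10, 50, 100, 500 and 1000 nM.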

[2] = compound: CC(=O)NCC(=O)N1[C@@H]2CC[C@H]1c1ccc(Nc3ncc(C(F)(F)F)c(NC4CCC4)n3)cc12; assay: as above; settings: exposure time: 5 days
In short: as §1

HCC202 BREAST
surviving fraction ([1]; 0.5 nM): 0.959 ± 0.31 | surviving fraction ([1]; 1 nM): 0.859 ± 0.088 | surviving fraction ([1]; 5 nM): 1.01 ± 0.094 | surviving fraction ([1]; 10 nM): 0.874 ± 0.16 | surviving fraction ([1]; 50 nM): 0.863 ± 0.17 | surviving fraction ([1]; 100 nM): 1 ± 0.25 | surviving fraction ([1]; 500 nM): 1.19 ± 0.15 | surviving fraction ([1]; 1000 nM): 0.982 ± 0.22 | surviving fraction ([2]; 0.5 nM): 1.54 ± 0.18 | surviving fraction ([2]; 1 nM): 1.09 ± 0.18 | surviving fraction ([2]; 5 nM): 1.44 ± 0.13 | surviving fraction ([2]; 10 nM): 1.5 ± 0.21 | surviving fraction ([2]; 50 nM): 1.46 ± 0.16 | surviving fraction ([2]; 100 nM): 1.32 ± 0.4 | surviving fraction ([2]; 500 nM): 1.32 ± 0.15 | surviving fraction ([2]; 1000 nM): 1.08 ± 0.26

HCC1395 BREAST
surviving fraction ([1]; 0.5 nM): 1.22 ± 0.076 | surviving fraction ([1]; 1 nM): 0.965 ± 0.17 | surviving fraction ([1]; 5 nM): 1.19 ± 0.088 | surviving fraction ([1]; 10 nM): 1.13 ± 0.087 | surviving fraction ([1]; 50 nM): 1.28 ± 0.09 | surviving fraction ([1]; 100 nM): 1.1 ± 0.11 | surviving fraction ([1]; 500 nM): 1.31 ± 0.083 | surviving fraction ([1]; 1000 nM): 1.34 ± 0.07 | surviving fraction ([2]; 0.5 nM): 0.928 ± 0.15 | surviving fraction ([2]; 1 nM): 1.05 ± 0.12 | surviving fraction ([2]; 5 nM): 0.979 ± 0.062 | surviving fraction ([2]; 10 nM): 1.04 ± 0.0025 | surviving fraction ([2]; 50 nM): 0.962 ± 0.12 | surviving fraction ([2]; 100 nM): 0.94 ± 0.13 | surviving fraction ([2]; 500 nM): 0.991 ± 0.027 | surviving fraction ([2]; 1000 nM): 0.928 ± 0.092

HCC1806 BREAST
surviving fraction ([1]; 0.5 nM): 0.984 ± 0.095 | surviving fraction ([1]; 1 nM): 0.999 ± 0.085 | surviving fraction ([1]; 5 nM): 1.05 ± 0.046 | surviving fraction ([1]; 10 nM): 1.08 ± 0.17 | surviving fraction ([1]; 50 nM): 1.12 ± 0.1 | surviving fraction ([1]; 100 nM): 1.09 ± 0.024 | surviving fraction ([1]; 500 nM): 0.941 ± 0.17 | surviving fraction ([1]; 1000 nM): 0.95 ± 0.072 | surviving fraction ([2]; 0.5 nM): 0.995 ± 0.055 | surviving fraction ([2]; 1 nM): 0.914 ± 0.11 | surviving fraction ([2]; 5 nM): 1.14 ± 0.041 | surviving fraction ([2]; 10 nM): 1.11 ± 0.031 | surviving fraction ([2]; 50 nM): 0.658 ± 0.057 | surviving fraction ([2]; 100 nM): 0.471 ± 0.042 | surviving fraction ([2]; 500 nM): 0.583 ± 0.076 | surviving fraction ([2]; 1000 nM): 0.407 ± 0.04

HCC1954 BREAST
surviving fraction ([1]; 0.5 nM): 0.996 ± 0.22 | surviving fraction ([1]; 1 nM): 0.907 ± 0.29 | surviving fraction ([1]; 5 nM): 1.07 ± 0.21 | surviving fraction ([1]; 10 nM): 0.901 ± 0.4 | surviving fraction ([1]; 50 nM): 1.39 ± 0.17 | surviving fraction ([1]; 100 nM): 1.05 ± 0.056 | surviving fraction ([1]; 500 nM): 1.29 ± 0.054 | surviving fraction ([1]; 1000 nM): 1.36 ± 0.092 | surviving fraction ([2]; 0.5 nM): 0.891 ± 0.079 | surviving fraction ([2]; 1 nM): 0.784 ± 0.085 | surviving fraction ([2]; 5 nM): 1.17 ± 0.054 | surviving fraction ([2]; 10 nM): 0.986 ± 0.042 | surviving fraction ([2]; 50 nM): 0.828 ± 0.022 | surviving fraction ([2]; 100 nM): 0.745 ± 0.14 | surviving fraction ([2]; 500 nM): 1.07 ± 0.021 | surviving fraction ([2]; 1000 nM): 0.905 ± 0.11

HMLE3 BREAST
surviving fraction ([1]; 0.5 nM): 1.05 ± 0.084 | surviving fraction ([1]; 1 nM): 1.08 ± 0.081 | surviving fraction ([1]; 5 nM): 1.05 ± 0.026 | surviving fraction ([1]; 10 nM): 1.03 ± 0.043 | surviving fraction ([1]; 50 nM): 1.1 ± 0.099 | surviving fraction ([1]; 100 nM): 0.962 ± 0.086 | surviving fraction ([1]; 500 nM): 0.925 ± 0.12 | surviving fraction ([1]; 1000 nM): 0.933 ± 0.066 | surviving fraction ([2]; 0.5 nM): 0.923 ± 0.046 | surviving fraction ([2]; 1 nM): 0.934 ± 0.029 | surviving fraction ([2]; 5 nM): 1.01 ± 0.053 | surviving fraction ([2]; 10 nM): 0.941 ± 0.092 | surviving fraction ([2]; 50 nM): 0.807 ± 0.027 | surviving fraction ([2]; 100 nM): 0.689 ± 0.0078 | surviving fraction ([2]; 500 nM): 0.357 ± 0.026 | surviving fraction ([2]; 1000 nM): 0.237 ± 0.041

HMT3552 BREAST
surviving fraction ([1]; 0.5 nM): 1.05 | surviving fraction ([1]; 1 nM): 1.05 | surviving fraction ([1]; 5 nM): 0.895 | surviving fraction ([1]; 10 nM): 0.991 | surviving fraction ([1]; 50 nM): 1.31 | surviving fraction ([1]; 100 nM): 1.25 | surviving fraction ([1]; 500 nM): 1.17 | surviving fraction ([1]; 1000 nM): 1.19 | surviving fraction ([2]; 0.5 nM): 1.16 | surviving fraction ([2]; 1 nM): 1.06 | surviving fraction ([2]; 5 nM): 1.01 | surviving fraction ([2]; 10 nM): 0.934 | surviving fraction ([2]; 50 nM): 0.148 | surviving fraction ([2]; 100 nM): 0.47 | surviving fraction ([2]; 500 nM): 0.121 | surviving fraction ([2]; 1000 nM): 0.116

HOS BONE
surviving fraction ([1]; 0.5 nM): 1.02 ± 0.068 | surviving fraction ([1]; 1 nM): 1.03 ± 0.021 | surviving fraction ([1]; 5 nM): 1.01 ± 0.022 | surviving fraction ([1]; 10 nM): 1.04 ± 0.034 | surviving fraction ([1]; 50 nM): 1.114 ± 0.0042 | surviving fraction ([1]; 100 nM): 1.07 ± 0.06 | surviving fraction ([1]; 500 nM): 1.05 ± 0.016 | surviving fraction ([1]; 1000 nM): 1.08 ± 0.057 | surviving fraction ([2]; 0.5 nM): 1.03 ± 0.013 | surviving fraction ([2]; 1 nM): 1.013 ± 0.0087 | surviving fraction ([2]; 5 nM): 1.01 ± 0.025 | surviving fraction ([2]; 10 nM): 1.006 ± 0.0098 | surviving fraction ([2]; 50 nM): 0.719 ± 0.025 | surviving fraction ([2]; 100 nM): 0.675 ± 0.025 | surviving fraction ([2]; 500 nM): 0.585 ± 0.03 | surviving fraction ([2]; 1000 nM): 0.485 ± 0.012

HS57T BREAST
surviving fraction ([1]; 0.5 nM): 1.02 ± 0.025 | surviving fraction ([1]; 1 nM): 1.08 ± 0.097 | surviving fraction ([1]; 5 nM): 1.11 ± 0.052 | surviving fraction ([1]; 10 nM): 1.1 ± 0.031 | surviving fraction ([1]; 50 nM): 1.16 ± 0.043 | surviving fraction ([1]; 100 nM): 1.11 ± 0.032 | surviving fraction ([1]; 500 nM): 0.954 ± 0.055 | surviving fraction ([1]; 1000 nM): 0.96 ± 0.039 | surviving fraction ([2]; 0.5 nM): 0.907 ± 0.056 | surviving fraction ([2]; 1 nM): 0.894 ± 0.049 | surviving fraction ([2]; 5 nM): 0.955 ± 0.0027 | surviving fraction ([2]; 10 nM): 0.94 ± 0.044 | surviving fraction ([2]; 50 nM): 0.633 ± 0.069 | surviving fraction ([2]; 100 nM): 0.535 ± 0.025 | surviving fraction ([2]; 500 nM): 0.443 ± 0.013 | surviving fraction ([2]; 1000 nM): 0.414 ± 0.019

HS578T BREAST
surviving fraction ([1]; 0.5 nM): 0.985 ± 0.087 | surviving fraction ([1]; 1 nM): 1.09 ± 0.068 | surviving fraction ([1]; 5 nM): 1.02 ± 0.11 | surviving fraction ([1]; 10 nM): 1.02 ± 0.048 | surviving fraction ([1]; 50 nM): 1.11 ± 0.15 | surviving fraction ([1]; 100 nM): 1.14 ± 0.19 | surviving fraction ([1]; 500 nM): 0.949 ± 0.071 | surviving fraction ([1]; 1000 nM): 1.13 ± 0.082 | surviving fraction ([2]; 0.5 nM): 1 ± 0.016 | surviving fraction ([2]; 1 nM): 0.962 ± 0.088 | surviving fraction ([2]; 5 nM): 0.918 ± 0.23 | surviving fraction ([2]; 10 nM): 0.879 ± 0.027 | surviving fraction ([2]; 50 nM): 0.866 ± 0.085 | surviving fraction ([2]; 100 nM): 0.721 ± 0.081 | surviving fraction ([2]; 500 nM): 0.592 ± 0.071 | surviving fraction ([2]; 1000 nM): 0.559 ± 0.11

HU09 BONE
surviving fraction ([1]; 0.5 nM): 0.993 ± 0.16 | surviving fraction ([1]; 1 nM): 0.91 ± 0.051 | surviving fraction ([1]; 5 nM): 1.08 ± 0.022 | surviving fraction ([1]; 10 nM): 1.05 ± 0.11 | surviving fraction ([1]; 50 nM): 1.04 ± 0.15 | surviving fraction ([1]; 100 nM): 1.19 ± 0.049 | surviving fraction ([1]; 500 nM): 0.984 ± 0.17 | surviving fraction ([1]; 1000 nM): 1.04 ± 0.059 | surviving fraction ([2]; 0.5 nM): 1.05 ± 0.082 | surviving fraction ([2]; 1 nM): 1.01 ± 0.03 | surviving fraction ([2]; 5 nM): 1.08 ± 0.075 | surviving fraction ([2]; 10 nM): 1.11 ± 0.078 | surviving fraction ([2]; 50 nM): 0.67 ± 0.024 | surviving fraction ([2]; 100 nM): 0.583 ± 0.011 | surviving fraction ([2]; 500 nM): 0.3 ± 0.0061 | surviving fraction ([2]; 1000 nM): 0.179 ± 0.023
